In paper PMC12040169 (PLOS Biology, 2025):

experiment: in vitro; details: human, hela cells, % viability

Structure (SMILES) | viability at 28.5 h, 10 µM [%]
O=C1c2ccccc2C(=O)N1CN(Cc1ccc2c(c1)OCO2)CN1C(=O)c2ccccc2C1=O [CBK265197] | 107
Cc1ccc(S(=O)(=O)NCC(=O)Nc2ccc(C)cc2C(=O)c2ccccc2)cc1 [CBK265199] | 85.8
COC(=O)c1ccc(C2N(Cc3ccccc3)CCN2Cc2ccccc2)cc1 [CBK265201] | 87.3
Cc1cccc(Nc2nc(N)nc(CC(=O)CSc3ccc(Cl)cc3)n2)c1 [CBK265204] | 104
COc1ccc(-c2nnc(SCc3csc(Nc4ccccc4)n3)n2-c2ccccc2)cc1 [CBK265205] | 89.1
Oc1ccc(/C=N/n2c(S)nnc2C(F)(F)F)cc1 [CBK265206] | 98.6
Clc1ccc(CN2CCN(Cc3ccc(Cl)cc3)C2c2ccncc2)cc1 [CBK265207] | 104
NS(=O)(=O)c1ccc(NC(=O)C2Cc3ccccc3CN2S(=O)(=O)c2ccc(F)cc2)cc1 (stereo not drawn) [CBK265208] | 103
Cn1c(SCC(=O)N2CCN(c3ccccc3)CC2)nnc1-c1cccc([N+](=O)[O-])c1 [CBK265209] | 105
COc1cc(CN2CCN(C(=O)c3cccnc3)CC2)cc(OC)c1O [CBK265210G] | 85.2
CC(C)C(=O)Nc1cccc(NC(=O)COc2ccc(Br)cc2)c1 [CBK265211] | 94
CCOC(=O)c1c(NC(=O)CN2CC(C)OC(C)C2)sc2c1CCCC2 (stereo not drawn) [CBK265216] | 103
CC(=O)Nc1ccc(N2C(=O)CC(N3CCN(Cc4ccc5c(c4)OCO5)CC3)C2=O)cc1 (stereo not drawn) [CBK265217] | 106
Sc1nnc(CSCc2ccccc2Cl)n1-c1ccccc1 [CBK265219] | 100
CN1CCN(C(S)=Nc2ccc(S(N)(=O)=O)cc2)CC1 [CBK265223] | 92.5
COc1cc(C2N(Cc3ccccc3)CCCN2Cc2ccccc2)c([N+](=O)[O-])cc1OC [CBK265224] | 88.2
O=C(/C=C/c1ccc(F)cc1)NCCc1ccc(S(=O)(=O)N2CCCC2)cc1 [CBK265227] | 81.8
N/C(=N/OCC(=O)Nc1cccc2ccccc12)c1nonc1N [CBK265234] | 90.6
O=[N+]([O-])c1ccc(/C=N/n2c(S)nnc2COc2ccccc2)cc1 [CBK265240] | 91.5
CC(=O)Nc1ccc(S(=O)(=O)N2CCCCC2C(=O)O)cc1 (stereo not drawn) [CBK265241] | 102
CCOc1cc(/C=C2\SC(=N)NC2=O)ccc1OS(=O)(=O)c1ccc(NC(C)=O)cc1 [CBK265243] | 94

Structure (SMILES) | viability at 28.5 h, 10 µM [%]
COc1cccc(NC(=S)NCCc2ccccn2)c1 [CBK265245] | 96.9
Cn1nc([N+](=O)[O-])nc1OCc1nc2ccccc2n1C [CBK265247] | 88.9
COC(=O)Nc1ccc(S(=O)(=O)N2CCCC(C(=O)Nc3cccc(C(F)(F)F)c3)C2)cc1 (stereo not drawn) [CBK265248] | 92.3
COC(=O)CN1C(=O)S/C(=C/c2cc(C)n(-c3ccc(S(N)(=O)=O)cc3)c2C)C1=O [CBK265249] | 95.9
O=C(O)CN1/C(=C\C=C2/SC(=S)N(c3ccccc3)C2=O)Sc2ccccc21 [CBK265251] | 86.3
O=C(O)COc1ccccc1/C=N/n1c(S)nnc1-c1ccncc1 [CBK265253] | 111
O=[N+]([O-])c1ccccc1S(=O)(=O)NCCSCc1c(F)cccc1Cl [CBK265259] | 102
FC(F)(F)c1ccccc1/C=N/n1c(S)nnc1COc1ccccc1 [CBK265260] | 99.7
COc1ccc(Cl)cc1NC(=O)CN(c1ccccc1)S(=O)(=O)c1ccc(Cl)cc1 [CBK265261] | 105
CS(=O)(=O)N(CC(=O)Nc1ccccc1F)c1ccc(I)cc1 [CBK265265] | 97.4
O=C(O)C(Cc1ccccc1)Nc1ncnc2sc3c(c12)CCC3 (stereo not drawn) [CBK265266] | 90.2
CC12CCC(C(=O)O)(C/C1=N\N)C2(C)C (stereo not drawn) [CBK265268] | 113
COC(=O)CN1C(=O)S/C(=C/c2cc(C)n(-c3ccc4ncccc4c3)c2C)C1=O [CBK265275] | 121
COc1ccc(C2=NN(c3ccc([N+](=O)[O-])cc3)C(=O)/C2=C/NCc2ccccn2)cc1 [CBK265276] | 107
O=C(CCc1ccccc1)NC(c1cccc([N+](=O)[O-])c1)c1c(O)ccc2ccccc12 (stereo not drawn) [CBK265278] | 109
COc1cc(/C=C2\SC(=S)N(c3cccc(C(=O)O)c3)C2=O)cc([N+](=O)[O-])c1O [CBK265281] | 96.2
O=C(O)CCn1cc(/C=C2\SC(=S)NC2=O)c(-c2cccc(Br)c2)n1 [CBK265287] | 110
Oc1ccc(/C=C/c2nc(-c3ccccc3O)n(-c3ccccc3)n2)cc1 [CBK265289] | 74.4
O=C(CN(c1ccccc1)S(=O)(=O)c1ccccc1)N1CCN(Cc2ccc3c(c2)OCO3)CC1 [CBK265290] | 90
O=C(Nc1cccc([N+](=O)[O-])c1)c1ccc(CSc2ccccc2)cc1 [CBK265295] | 117
CCOC(=O)c1cnc2c(C)c(Cl)ccc2c1NCCCN1CCOCC1 [CBK265296] | 99.6

Structure (SMILES) | viability at 28.5 h, 10 µM [%]
CCOC(=O)c1c(NC(=O)/C=C/C(=O)O)sc2c1CCCCC2 [CBK265299] | 91.5
Oc1cccc(/C=N/n2c(S)nnc2-c2ccncc2)c1 [CBK265300] | 109
COc1ccc(S(=O)(=O)N(CC(=O)N2CCC(C(N)=O)CC2)c2ccccc2)cc1 [CBK265301] | 108
Cc1cc(C(=O)Oc2cccc(NC3=NS(=O)(=O)c4ccccc43)c2)c2ccccc2n1 [CBK265302] | 96.5
O=S(=O)(NCCSCc1c(Cl)cccc1Cl)c1ccc(Cl)cc1 [CBK265304] | 91.2
CSc1nc(O)c(C(c2ccc(Cl)cc2)c2c(O)nc(SC)nc2O)c(O)n1 [CBK265306] | 105
O=C(CNC(=S)NC(=O)c1ccc(Br)o1)c1ccccc1 [CBK265310] | 98
N=C1NC(=O)/C(=C/c2c(OS(=O)(=O)c3ccc(Cl)cc3)ccc3ccccc23)S1 [CBK265311] | 89.6
CCNC(=O)c1cc2c(=O)n3cc(C)ccc3nc2n(Cc2ccco2)c1=N [CBK265312] | 85.8
CSc1nc(O)c(C(c2ccc(C)cc2)c2c(O)nc(SC)nc2O)c(O)n1 [CBK265313] | 90.3
NC(=O)C1CCN(C(=O)CN(c2ccccc2)S(=O)(=O)c2ccccc2[N+](=O)[O-])CC1 [CBK265320] | 78
COc1ccc(NC(=S)NC(=O)c2cc3c(C)nn(-c4ccccc4)c3s2)cc1[N+](=O)[O-] [CBK265324] | 102
CN(C)CCCOC(=O)C(C)(c1ccccc1)c1ccccc1 [CBK265325C] | 118
OCCNC(=S)Nc1ccc(Cl)cc1Cl [CBK265330] | 106
N/C(=N\OCC(=O)Nc1ccc(-n2cnnn2)cc1)c1nonc1N [CBK265331] | 104
Cc1ccc(NC(=O)c2cc(NC(=O)c3ccccc3C(=O)O)ccc2N2CCCCC2)cc1 [CBK265332] | 100
COc1ccc(NC(=O)CC2SC(=N)NC2=O)c([N+](=O)[O-])c1 (stereo not drawn) [CBK265334] | 95.9
O=C(O)COc1ccccc1/C=N/n1c(S)nnc1-c1cccnc1 [CBK265337] | 89.9
O=C(Nc1ccccc1)Nc1ccccc1C(=O)NCc1ccccc1 [CBK265338] | 90.2
CC(=O)NC(=NOCc1ccc(Br)cc1)c1nonc1NC(C)=O [CBK265342] | 87.8
COc1ccccc1NC(=S)NCCN(C)C [CBK265343] | 111

Structure (SMILES) | viability at 28.5 h, 10 µM [%]
O=C(O)c1ccc(/C=N/N2CCN(Cc3ccccc3)CC2)cc1 [CBK265344] | 108
O=C(O)CCNc1nc(Cc2ccccc2)nc2sc3c(c12)CCCC3 [CBK265345] | 93.4
CCc1cc2c(NC(C(=O)O)C(C)C)ncnc2s1 (stereo not drawn) [CBK265349] | 97.7
Cc1ccc(NC(=O)c2cc(NC(=O)C3C4C=CC(C4)C3C(=O)O)ccc2N2CCCCC2)cc1 (stereo not drawn) [CBK265350] | 107
CC(=O)Nc1ccc(C(=O)N/C(=C/c2ccccc2)C(=O)O)cc1 [CBK265353] | 87.6
N=C1/C(=C/c2ccc(-c3cccc([N+](=O)[O-])c3)o2)C(=O)N=C2SC(SCc3ccccc3)=NN12 [CBK265354] | 88.5
Cc1sc2ncn(Cc3c(Cl)cccc3Cl)c(=O)c2c1C [CBK265355] | 78.8
COc1ccccc1NC(=S)NCCc1ccccn1 [CBK265358] | 91.2
COC(=O)Nc1ccc(S(=O)(=O)N2CCCC(C(=O)Nc3ccc4c(c3)OCO4)C2)cc1 (stereo not drawn) [CBK265361] | 89.8
CS(=O)(=O)N(CC(=O)NCc1ccccn1)c1ccc(I)cc1 [CBK265369] | 78.8
CC(=O)Oc1ccc(NC(=O)C2CC(Cl)=CCC2C(=O)O)cc1C(=O)O (stereo not drawn) [CBK265372] | 100
O=Cc1cn(CCC(=O)O)nc1-c1cc2ccccc2o1 [CBK265376] | 90
COC(=O)c1c(NC(=O)CCCC(=O)O)sc(C)c1C [CBK265382] | 98.2
CCC(C(=O)Nc1sc2c(c1C(N)=O)CCCCCC2)c1ccccc1 (stereo not drawn) [CBK265383] | 85.8
O=C(CC(Nc1ccccc1Cl)C(=O)O)c1ccccc1 (stereo not drawn) [CBK265386] | 81.1
O=c1cc2oc3cc(O)c(O)cc3c(-c3cccc(OCc4ccc([N+](=O)[O-])cc4)c3)c-2cc1O [CBK265388] | 91
COC(=O)c1sc(NC(=O)C2CCCCC2C(=O)O)c(C(=O)OC)c1C (stereo not drawn) [CBK265389] | 106
Cc1cc(Cl)ccc1OCCCC(=O)Nc1sc2c(c1C(N)=O)CCCCCC2 [CBK265390] | 94.8
Cc1ccccc1OCCn1c(=N)n(CC(C)C)c2ccccc21 [CBK265392B] | 94.9

same assay, conditions: human, hela cells, % viability, bulk resorufin, single well

Structure (SMILES) | viability at 28.5 h, 10 µM [%]
CCNC(=S)N1CCN(CCNC=C2C(=O)NC(=O)NC2=O)CC1 [CBK265228] | 111
O=C(O)CCn1cc(C=C2C(=O)NC(=S)NC2=O)c(-c2cccc([N+](=O)[O-])c2)n1 [CBK265309] | 116
